Reference: paper PMC6767220, “Active Anti-Inflammatory and Hypolipidemic Derivatives of Lorazepam” (Molecules, 2019)
“Also recorded” adds a separate entry of the source. Like-named read-outs stand apart in the source and are kept apart here.

How the values were obtained:
[1] = system: carrageenan-induced rat paw oedema; assay: Carrageenan-induced rat paw oedema; type: in vivo; conditions: ip, i.p. 0.15 mmol/kg, 3.5 h post administration, vs controls, read-out: % Oedema Reduction
Procedure: An aqueous solution of carrageenan was prepared (1% w/v) and 0.1 mL of this was injected i.d. into the right hind paw of female rats; the left paw served as control. The tested compounds (suspended in water with a few drops of Tween 80) were given intra peritoneally (i.p.) (0.15 mmol/kg) 5 min prior to the carrageenan injection. After 3.5 h the hind paws were weighed separately. The produced oedema was estimated as paw weight increase.

[2] = system: rat hepatic microsomal membrane lipid peroxidation; assay: Inhibition of rat hepatic microsomal membrane lipid peroxidation induced by ferrous ascorbate; type: biochemical; conditions: for IC50: rat hepatic microsomal fraction, ferrous ascorbate, 45 min incubation; for Antioxidant activity (lipid peroxidation and DPPH experiments): lipid peroxidation inhibition and DPPH interaction, result in words
Procedure: The incubation mixture contained heat-inactivated rat hepatic microsomal fraction, ascorbic acid (0.2 mM) in Tris–HCl/KCl buffer (pH 7.4) and the test compounds dissolved in dimethylsulphoxide. The reaction was initiated by FeSO4 (10 µM) and the mixture was incubated at 37 °C. Aliquots were taken at various time intervals for 45 min. Lipid peroxidation was assessed spectrophotometrically (535 against 600 nm) by the determination of 2-thiobarbituric acid (TBA) reactive material.

[3] = Interaction with the stable radical DPPH; conditions: DPPH 200 µΜ, 30 min incubation
Procedure: Compounds (in absolute ethanol, final concentration 50–200 µM) were added to an equal volume of an ethanolic solution of DPPH (final concentration 200 µM) at room temperature (22 ± 2 °C). Absorbance (517 nm) was recorded after 30 min [22].

[4] = molecular target: T1, soybean lipoxygenase-1 (Glycine max, UniProt P08170); assay: Inhibition of soybean lipoxygenase; type: biochemical
T1 sequence (P08170 1-839): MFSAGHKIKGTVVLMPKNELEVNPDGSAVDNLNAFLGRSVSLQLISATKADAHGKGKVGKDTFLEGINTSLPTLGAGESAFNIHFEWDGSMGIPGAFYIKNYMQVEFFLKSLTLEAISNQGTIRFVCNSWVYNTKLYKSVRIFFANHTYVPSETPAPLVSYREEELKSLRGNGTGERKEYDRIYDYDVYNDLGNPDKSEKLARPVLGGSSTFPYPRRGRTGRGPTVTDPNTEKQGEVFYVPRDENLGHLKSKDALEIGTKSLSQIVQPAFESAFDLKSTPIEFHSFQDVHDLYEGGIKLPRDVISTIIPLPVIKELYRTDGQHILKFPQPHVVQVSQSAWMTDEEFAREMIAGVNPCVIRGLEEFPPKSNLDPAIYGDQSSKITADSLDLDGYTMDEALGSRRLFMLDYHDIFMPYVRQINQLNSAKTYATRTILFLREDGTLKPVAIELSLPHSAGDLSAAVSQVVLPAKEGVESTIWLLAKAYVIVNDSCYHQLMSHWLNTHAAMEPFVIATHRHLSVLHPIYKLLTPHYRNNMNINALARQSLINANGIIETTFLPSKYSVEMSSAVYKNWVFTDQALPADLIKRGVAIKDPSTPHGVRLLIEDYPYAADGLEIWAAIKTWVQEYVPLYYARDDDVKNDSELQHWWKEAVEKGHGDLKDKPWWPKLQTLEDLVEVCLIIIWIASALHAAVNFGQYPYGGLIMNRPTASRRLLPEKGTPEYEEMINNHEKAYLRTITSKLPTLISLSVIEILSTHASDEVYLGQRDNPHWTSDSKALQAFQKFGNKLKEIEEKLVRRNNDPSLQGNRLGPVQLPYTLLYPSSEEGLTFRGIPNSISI
Procedure: The reaction mixture contained the test compounds dissolved in ethanol and soybean lipoxygenase (250 U/mL) in Tris buffer (pH 9). The reaction was initiated by the addition of sodium linoleate (0.1 mM) and monitored for 7 min at 28 °C, by recording the absorbance of a conjugated diene structure at 234 nm. For the estimation of the type of inhibition, the above experiments were repeated, using sodium linoleate at 1 mM, which is higher than the saturating substrate concentration.

[5] = system: Triton WR1339 (tyloxapol) induced hyperlipidemia; assay: Triton WR1339 (tyloxapol) induced hyperlipidemia: plasma TC, TG, LDL-C; type: in vivo; conditions: ip, rat plasma, 24 h, tyloxapol 200 mg/kg i.p.; for inhibition in vivo at 50 µmol/kg: dose i.p. 50 µmol/kg; for inhibition in vivo at 150 µmol/kg: dose i.p. 150 µmol/kg; for inhibition in vivo at 300 µmol/kg: dose i.p. 300 µmol/kg; for inhibition in vivo at 500 µmol/kg: dose i.p. 500 µmol/kg
[6] = sodium linoleate 0.1 mM, 7 min incubation, read-out: Lipoxygenase IC50
[7] = read-out: % Reduction LDL-C (LDL cholesterol)
[8] = read-out: % Reduction TC (total cholesterol)
[9] = read-out: % Reduction TG (triglycerides)

| SMILES | melting point | inhibition in vivo at 150 µmol/kg [1] | IC50 [4, 6] | inhibition in vivo at 50 µmol/kg [5, 7] | inhibition in vivo at 50 µmol/kg [5, 8] | inhibition in vivo at 50 µmol/kg [5, 9] | other results |
| --- | --- | --- | --- | --- | --- | --- | --- |
| CC(C)(C)c1cc(C=CC(=O)OC2N=C(c3ccccc3Cl)c3cc(Cl)ccc3NC2=O)cc(C(C)(C)C)c1O (centres unmarked) [Compound 8, (E)-7-Chloro-5-(2-chlorophenyl)-2-oxo-2,3-dihydro-1H-benzo[e][1,4]diazepin-3-yl 3-(3,5-di-tert-butyl-4-hydroxyphenyl)acrylate] | 274 °C | 37% | 44 µM | 44% | 59% | 52% | IC50 [2]: > 100 µM; Percent Interaction with DPPH ([3]; compound 50 µΜ): 30%; Percent Interaction with DPPH ([3]; compound 100 µΜ): 49%; Percent Interaction with DPPH ([3]; compound 200 µΜ): 90%; inhibition in vivo at 150 µmol/kg [5, 7]: 63%; inhibition in vivo at 150 µmol/kg [5, 8]: 81%; inhibition in vivo at 150 µmol/kg [5, 9]: 66% |
| Cc1c(Cl)cccc1Nc1ccccc1C(=O)OC1N=C(c2ccccc2Cl)c2cc(Cl)ccc2NC1=O (centres unmarked) [Compound 5, 7-Chloro-5-(2-chlorophenyl)-2-oxo-2,3-dihydro-1H-benzo[e][1,4]diazepin-3-yl 2-((3-chloro-2-methylphenyl)amino)benzoate] | 206 to 207 °C | 55% |  | 48% | 56% | 57% | Lipoxygenase % Inhibition ([4]; compound 100 µΜ, sodium linoleate 0.1 mM, 7 min incubation): 22%/100 µΜ |
| COc1ccc2cc(C(C)C(=O)OC3N=C(c4ccccc4Cl)c4cc(Cl)ccc4NC3=O)ccc2c1 (centres unmarked) [Compound 2, 7-Chloro-5-(2-chlorophenyl)-2-oxo-2,3-dihydro-1H-benzo[e][1,4]diazepin-3-yl 2-(6-methoxynaphthalen-2-yl)propanoate] | 136 to 139 °C | 46% |  | 42% | 60% | 71% | Lipoxygenase IC50 ([4]; sodium linoleate 0.1 mM, 7 min incubation): - |
| Cc1c(Cl)cccc1Nc1ccccc1C(=O)O [Tolfenamic acid, reference compound] |  | 24% | 170 µM |  |  |  |  |
| O=C(CCCCC1CCSS1)OC1N=C(c2ccccc2Cl)c2cc(Cl)ccc2NC1=O (centres unmarked) [Compound 6, 7-Chloro-5-(2-chlorophenyl)-2-oxo-2,3-dihydro-1H-benzo[e][1,4]diazepin-3-yl 5-(1,2-dithiolan-3-yl)pentanoate] | 184 to 189 °C | 39% |  | 47% | 48% | 39% | Antioxidant activity (lipid peroxidation and DPPH experiments) [2]: do not express any antioxidant activity; also recorded: inactive; IC50 [4]: 60 µM; inhibition in vivo at 150 µmol/kg [5, 7]: 60%; inhibition in vivo at 150 µmol/kg [5, 8]: 82%; inhibition in vivo at 150 µmol/kg [5, 9]: 41% |
| CC(C(=O)OC1N=C(c2ccccc2Cl)c2cc(Cl)ccc2NC1=O)c1cccc(C(=O)c2ccccc2)c1 (centres unmarked) [Compound 3, 7-Chloro-5-(2-chlorophenyl)-2-oxo-2,3-dihydro-1H-benzo[e][1,4]diazepin-3-yl 2-(3-benzoylphenyl)propanoate] | 195 to 201 °C | 65% | 84 µM |  |  |  |  |
| CC(C)Cc1ccc(C(C)C(=O)OC2N=C(c3ccccc3Cl)c3cc(Cl)ccc3NC2=O)cc1 (centres unmarked) [Compound 1, 7-Chloro-5-(2-chlorophenyl)-2-oxo-2,3-dihydro-1H-benzo[e][1,4]diazepin-3-yl 2-(4-isobutylphenyl) propanoate] | 105 to 122 °C | 68% |  | 43% | 44% | 57% | Lipoxygenase % Inhibition ([4]; compound 50 µΜ, sodium linoleate 0.1 mM, 7 min incubation): 14%/50 µΜ; inhibition in vivo at 150 µmol/kg [5, 7]: 56%; inhibition in vivo at 150 µmol/kg [5, 8]: 82%; inhibition in vivo at 150 µmol/kg [5, 9]: 65% |
| CC(C)(C)c1cc(/C=C/C(=O)O)cc(C(C)(C)C)c1O [BHA, (E)-3-(3,5-di-tert-butyl-4-hydroxyphenyl)acrylic acid, reference compound] |  |  | > 300 µM |  |  |  |  |
| O=C(Cc1c[nH]c2ccccc12)OC1N=C(c2ccccc2Cl)c2cc(Cl)ccc2NC1=O (centres unmarked) [Compound 9, 7-Chloro-5-(2-chlorophenyl)-2-oxo-2,3-dihydro-1H-benzo[e][1,4]diazepin-3-yl 2-(1H-indol-3-yl)acetate] | 257 to 258 °C | 43% |  |  |  |  | Antioxidant activity (lipid peroxidation and DPPH experiments) [2]: do not express any antioxidant activity; IC50 [4]: 255 µM |
| CC(C)Cc1ccc(C(C)C(=O)O)cc1 (centres unmarked) [Ibuprofen, reference compound] |  | 36% |  |  |  |  | inhibition in vivo at 300 µmol/kg [5, 7]: 42%; inhibition in vivo at 300 µmol/kg [5, 8]: 41%; inhibition in vivo at 300 µmol/kg [5, 9]: 38% |
| Cc1c(C)c2c(c(C)c1O)CCC(C)(C(=O)O)O2 (centres unmarked) [Trolox, 6-hydroxy-2,5,7,8-tetramethylchroman-2-carboxylic acid, reference compound] |  |  | > 300 µM |  |  |  | IC50 [2]: 25 µM; Percent Interaction with DPPH ([3]; compound 50 µΜ): 38%; Percent Interaction with DPPH ([3]; compound 100 µΜ): 90%; Percent Interaction with DPPH ([3]; compound 200 µΜ): 92% |
| COc1ccc2cc([C@H](C)C(=O)O)ccc2c1 [Naproxen, reference compound] |  | 11% |  |  |  |  | inhibition in vivo at 500 µmol/kg [5, 7]: 26%; inhibition in vivo at 500 µmol/kg [5, 8]: 53%; inhibition in vivo at 500 µmol/kg [5, 9]: 44% |
| COc1ccc2c(c1)c(CC(=O)OC1N=C(c3ccccc3Cl)c3cc(Cl)ccc3NC1=O)c(C)n2C(=O)c1ccc(Cl)cc1 (centres unmarked) [Compound 4, 7-Chloro-5-(2-chlorophenyl)-2-oxo-2,3-dihydro-1H-benzo[e][1,4]diazepin-3-yl 2-(1-(4-chlorobenzoyl)-5-methoxy-2-methyl-1H-indol-3-yl)acetate] | 189 to 191 °C | 67% | 86 µM | 60% | 59% | 59% |  |
| COc1ccc2c(c1)c(CC(=O)O)c(C)n2C(=O)c1ccc(Cl)cc1 [Indomethacin, reference compound] |  | 42% |  |  |  |  |  |
